One assay has as its target T1, mutant MGL (Homo sapiens, UniProt Q99685, L169S/L176S).
T1 construct: purified mutant MGL (mut-MGLL 11-313 L179S L186S)
T1 sequence (Q99685 1-303 L169S/L176S): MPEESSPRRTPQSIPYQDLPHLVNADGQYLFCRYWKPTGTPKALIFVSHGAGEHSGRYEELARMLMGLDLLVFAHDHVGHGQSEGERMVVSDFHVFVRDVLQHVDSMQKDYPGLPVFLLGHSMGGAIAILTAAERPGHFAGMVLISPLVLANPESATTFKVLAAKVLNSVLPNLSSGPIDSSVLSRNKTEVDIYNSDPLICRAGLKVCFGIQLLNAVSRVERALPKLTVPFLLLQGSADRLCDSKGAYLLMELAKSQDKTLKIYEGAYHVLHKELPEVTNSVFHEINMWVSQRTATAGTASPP
Put plainly: MGL ThermoFluor assay - mutant. The class given is binding. Put shortly:
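Thermal shift binding with 0.07 mg/ml L169S/L176S MGL, 100 μM 1,8-ANS, 200 mM NaCl, 0.001% Tween-20, 50 mM PIPES pH 7.0. Heated 40–90 °C at 1 °C/min, fluorescence (em 500 nm) tracked to give Tm; Kd fitted from 11-point concentration–Tm response, qKd when stocks quantified by qNMR.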
For orientation: In DSF a fluorescence change marks the thermal transition of the protein.

The next assay has as its target T2, MGL (Rattus norvegicus, UniProt Q8R431).
T2 construct: one g rat brain was homogenized; from tissue; host or cells: rat brain homogenate
T2 sequence (Q8R431 1-303): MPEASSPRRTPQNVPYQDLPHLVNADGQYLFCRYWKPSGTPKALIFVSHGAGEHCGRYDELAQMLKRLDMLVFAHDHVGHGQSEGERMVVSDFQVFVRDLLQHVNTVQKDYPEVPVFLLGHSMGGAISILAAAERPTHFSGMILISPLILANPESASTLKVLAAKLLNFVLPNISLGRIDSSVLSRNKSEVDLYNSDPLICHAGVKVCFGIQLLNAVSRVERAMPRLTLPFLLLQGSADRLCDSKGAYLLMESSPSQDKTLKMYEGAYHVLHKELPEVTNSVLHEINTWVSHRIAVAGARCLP
Put plainly: 2-AG accumulation assay in rat brain homogenate. Format: biochemical. Particulars: compound @1 μM, read-out: Rat Brain 2AG % VehCntrl (%) @1 μM. Here is the method: After a 15-min incubation time at 37° C., CaCl2 (final concentration=10 mM) was added and then incubated for 15 min at 37° C. in a total volume of 5 mL. The reactions were stopped with 6 mL organic solvent extraction solution of 2:1 chloroform/methanol. Accumulated 2-AG in the organic phase was measured by a HPLC/MS method, according to the following equation: percent vehicle=(2-AG accumulation in the presence of compound/2-AG accumulation in vehicle)×100.

The target of assay [1] is T3, purified wild type MGL (wt-MGLL 6H-11-313) (Homo sapiens, UniProt Q99685).
T3 construct: purified wild type MGL (wt-MGLL 6H-11-313)
T3 sequence (Q99685 1-303): T1 sequence (Q99685 1-303 L169S/L176S) with S169L, S176L
The assay can be described thus: MGL enzyme activity assay (4MU-B cleavage), wild type MGL. Particulars: 10 μM 4MU-B, 5 nM enzyme, 37° C., read-out: MGL wild type inh IC50. The class given is biochemical. The gist of the method:
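Enzyme (5 nM final) cleaved 4MU-B (10 μM final) in 20 mM PIPES pH 7.0 with 150 mM NaCl and 0.001% Tween 20. Compounds were tested at 17 to 0.0003 μM final. Fluorescence (ex 335/em 440 nm) was monitored at 37° C for 5 min, and IC50 was fitted from fractional activity versus inhibitor concentration.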

Where [2] appears, read: compound concentration measured by qNMR, read-out: MGL mutant ThermoFluor qKd (using qNMR conc.).
[3] abbreviates: 0.07 mg/ml mutant MGL, pH=7.0, read-out: MGL mutant ThermoFluor Kd.

Molecules are shown by their SMILES. Numbering of substitutions follows the chain as printed. Where two headings read alike, the source gives them in different places.

A word on the IC50: it is the point on the concentration scale where inhibition reaches its midpoint.

Turning to `O=C(c1ccc2nc(-c3ccccc3)oc2c1)N1CC(C2CCN(C(=O)c3ccc[nH]3)CC2)C1` [Cpd 40, 2-Phenyl-6-({3-[1-(1H-pyrrol-2-ylcarbonyl)piperidin-4-yl]azetidin-1-yl}carbonyl)-1,3-benzoxazole], the Kd at mutant MGL (setting [2]) was 94.6 nM. The 2-AG accumulation, percent of vehicle control at 1 µM on MGL stood at 361%. For the same molecule, the IC50 in assay [1] is 9 nM.

For `O=C(c1ccc2nc(-c3ccccc3)oc2c1)N1CC(C2CCN(C(=O)c3nccs3)CC2)C1` [Cpd 28, 2-Phenyl-6-({3-[1-(1,3-thiazol-2-ylcarbonyl)piperidin-4-yl]azetidin-1-yl}carbonyl)-1,3-benzoxazole], at mutant MGL (setting [3]), the Kd worked out at 11.1 nM. Also, at MGL, the 2-AG accumulation, percent of vehicle control at 1 µM was found to be 777%. Further, the half-inhibitory concentration (IC50) in assay [1] was 16.4 nM.

On to `O=C(c1ccc2c(ccn2-c2ccc(F)c(F)c2)c1)N1CC(C2CCN(C(=O)c3cscn3)CC2)C1` [Cpd 38], for which the Kd on mutant MGL (setting [3]) is 15.5 nM. Moreover, at MGL, the 2-AG accumulation, percent of vehicle control at 1 µM amounted to 425%. Also, the IC50 in assay [1] stood at 5 nM.

Regarding `O=C(c1ccc2c(ccn2-c2ccc(C(F)(F)F)cc2)c1)N1CC(C2CCN(C(=O)c3ccc[nH]3)CC2)C1` [Cpd 43, 5-({3-[1-(1H-Pyrrol-2-ylcarbonyl)piperidin-4-yl]azetidin-1-yl}carbonyl)-1-[4-(trifluoromethyl)phenyl]-1H-indole], the Kd at mutant MGL (setting [2]) was 26.4 nM. For the same molecule, the 2-AG accumulation, percent of vehicle control at 1 µM at MGL was 611%. In addition, the IC50 in assay [1] is less than 5 nM.

For the molecule `O=C(c1ccc(Cc2ccc(C(F)(F)F)cc2)cc1)N1CC(C2CCN(C(=O)c3nccs3)CC2)C1` [Cpd 27, 1-(1,3-Thiazol-2-ylcarbonyl)-4-[1-({4-[4-(trifluoromethyl)benzyl]phenyl}carbonyl)azetidin-3-yl]piperidine], on mutant MGL (setting [3]), the Kd turned out to be 13.3 nM. For the same molecule, at MGL, the 2-AG accumulation, percent of vehicle control at 1 µM came out at 634%. Further, the IC50 in assay [1] was found to be 9 nM.

On to `O=C(c1ccc[nH]1)N1CCC(C2CN(C(=O)c3sc4cc(C(F)(F)F)ccc4c3Cl)C2)CC1` [Cpd 41, 4-(1-{[3-Chloro-6-(trifluoromethyl)-1-benzothiophen-2-yl]carbonyl}azetidin-3-yl)-1-(1H-pyrrol-2-ylcarbonyl)piperidine], for which the Kd came out at 4.1 nM at mutant MGL (setting [3]) and 3.1 nM at mutant MGL (setting [2]). The 2-AG accumulation, percent of vehicle control at 1 µM at MGL is 272%. Besides, the IC50 in assay [1] was less than 5 nM.

For `O=C(c1ccc(Cc2cccc(C(F)(F)F)c2)cc1)N1CCC(C2CN(C(=O)c3cscn3)C2)CC1` [Cpd 58, 4-[1-(1,3-Thiazol-4-ylcarbonyl)azetidin-3-yl]-1-({4-[3-(trifluoromethyl)benzyl]phenyl}carbonyl)piperidine], the Kd at mutant MGL (setting [2]) worked out at 6.9 nM. Also, the 2-AG accumulation, percent of vehicle control at 1 µM at MGL came out at 370%. The IC50 in assay [1] was less than 5 nM.

Turning to `O=C(c1ccc(Cc2cccc(C(F)(F)F)c2)cc1)N1CC(C2CCN(C(=O)c3nccs3)CC2)C1` [Cpd 19, 1-(1,3-Thiazol-2-ylcarbonyl)-4-[1-({4-[3-(trifluoromethyl)benzyl]phenyl}carbonyl)azetidin-3-yl]piperidine], on mutant MGL (setting [3]), the Kd came to 9 nM. Further, the 2-AG accumulation, percent of vehicle control at 1 µM at MGL was determined as 559%. Besides, the IC50 in assay [1] was less than 5 nM.

With `O=C(c1cccc(-c2cccc(F)c2)c1)N1CC(C2CCN(C(=O)c3nccs3)CC2)C1` [Cpd 17, 4-{1-[(3′-Fluorobiphenyl-3-yl)carbonyl]azetidin-3-yl}-1-(1,3-thiazol-2-ylcarbonyl)piperidine], the Kd at mutant MGL (setting [3]) came to 99 nM. The 2-AG accumulation, percent of vehicle control at 1 µM at MGL was determined as 184%. For the same molecule, the concentration for half-maximal inhibition (IC50) in assay [1] amounted to 17.3 nM.

`Cc1c(C(=O)N2CC(C3CCN(C(=O)c4cscn4)CC3)C2)sc2cc(C(F)(F)F)ccc12` [Cpd 14, 4-(1-{[3-Methyl-6-(trifluoromethyl)-1-benzothiophen-2-yl]carbonyl}azetidin-3-yl)-1-(1,3-thiazol-4-ylcarbonyl)piperidine]: on mutant MGL (setting [3]), the Kd stood at 5 nM. Also, the 2-AG accumulation, percent of vehicle control at 1 µM on MGL was found to be 231%. Also, in assay [1], the half-maximal inhibitory concentration (IC50) came to 5 nM.

Consider `O=C(c1cccc(-c2cccc(F)c2)c1)N1CCC(C2CN(C(=O)c3nccs3)C2)CC1` [Cpd 51, 1-[(3′-Fluorobiphenyl-3-yl)carbonyl]-4-[1-(1,3-thiazol-2-ylcarbonyl)azetidin-3-yl]piperidine], for which the Kd on mutant MGL (setting [2]) was 18 nM. In addition, at MGL, the 2-AG accumulation, percent of vehicle control at 1 µM is 266%. In assay [1], the IC50 was less than 5 nM.

Take `O=C(c1ccc(-c2cccc(C(F)(F)F)c2)cc1)N1CCC(C2CN(C(=O)c3ccc[nH]3)C2)CC1` [Cpd 50, 4-[1-(1H-Pyrrol-2-ylcarbonyl)azetidin-3-yl]-1-{[3′-(trifluoromethyl)biphenyl-4-yl]carbonyl}piperidine]: on mutant MGL (setting [2]), the Kd came out at 1 nM. Moreover, at MGL, the 2-AG accumulation, percent of vehicle control at 1 µM amounted to 561%. The IC50 in assay [1] was less than 5 nM.

Consider `O=C(c1ccc(-c2cccc(C(F)(F)F)c2)cc1)N1CC(C2CCN(C(=O)c3nccs3)CC2)C1` [Cpd 16, 1-(1,3-Thiazol-2-ylcarbonyl)-4-(1-{[3′-(trifluoromethyl)biphenyl-4-yl]carbonyl}azetidin-3-yl)piperidine], for which the Kd at mutant MGL (setting [3]) worked out at 2 nM. The 2-AG accumulation, percent of vehicle control at 1 µM on MGL stood at 493%. For the same molecule, in assay [1], the IC50 is 7 nM.

On to `O=C(c1cccc(-c2cccc(F)c2)c1)N1CCC(C2CN(C(=O)c3ccc[nH]3)C2)CC1` [Cpd 53, 1-[(3′-Fluorobiphenyl-3-yl)carbonyl]-4-[1-(1H-pyrrol-2-ylcarbonyl)azetidin-3-yl]piperidine], for which the Kd on mutant MGL (setting [2]) worked out at 33.3 nM. Also, at MGL, the 2-AG accumulation, percent of vehicle control at 1 µM turned out to be 225%. The IC50 in assay [1] came to 46.6 nM.

In the case of `O=C(c1ccc(Cc2ccc(C(F)(F)F)cc2)cc1)N1CCC(C2CN(C(=O)c3ccc[nH]3)C2)CC1` [Cpd 65, 4-[1-(1H-Pyrrol-2-ylcarbonyl)azetidin-3-yl]-1-({4-[4-(trifluoromethyl)benzyl]phenyl}carbonyl)piperidine], the Kd on mutant MGL (setting [2]) was 40.4 nM. On MGL, the 2-AG accumulation, percent of vehicle control at 1 µM worked out at 241%. In assay [1], the IC50 was less than 5 nM.

Turning to `O=C(c1ccc(Cc2ccc(C(F)(F)F)cc2)cc1)N1CC(C2CCN(C(=O)c3ccc[nH]3)CC2)C1` [Cpd 39, 1-(1H-Pyrrol-2-ylcarbonyl)-4-[1-({4-[4-(trifluoromethyl)benzyl]phenyl}carbonyl)azetidin-3-yl]piperidine], at mutant MGL (setting [2]), the Kd is 48.9 nM. In addition, on MGL, the 2-AG accumulation, percent of vehicle control at 1 µM was 371%. In assay [1], the IC50 is less than 5 nM.

Consider `O=C(c1ccc2c(ccn2-c2ccc(F)cc2)c1)N1CC(C2CCN(C(=O)c3ccc[nH]3)CC2)C1` [Cpd 42, 1-(4-Fluorophenyl)-5-({3-[1-(1H-pyrrol-2-ylcarbonyl)piperidin-4-yl]azetidin-1-yl}carbonyl)-1H-indole], for which, on mutant MGL (setting [2]), the Kd stood at 24.5 nM. Also, the 2-AG accumulation, percent of vehicle control at 1 µM at MGL worked out at 498%. Moreover, in assay [1], the IC50 is less than 5 nM.

For the molecule `O=C(c1ccc(-c2ccc(C(F)(F)F)s2)cc1)N1CC(C2CCN(C(=O)c3nccs3)CC2)C1` [Cpd 18, 1-(1,3-Thiazol-2-ylcarbonyl)-4-[1-({4-[5-(trifluoromethyl)thiophen-2-yl]phenyl}carbonyl)azetidin-3-yl]piperidine], the Kd on mutant MGL (setting [3]) was 3 nM. Further, the 2-AG accumulation, percent of vehicle control at 1 µM at MGL was determined as 457%. Further, the concentration for half-maximal inhibition (IC50) in assay [1] turned out to be 12.5 nM.

(Values after patent publication US8513423B2 (Janssen Pharmaceutica, NV, priority 2010, dated 2013).)
